# Results taken from US11633370B2, “Use of scavengers of reactive gamma-ketoaldehydes to extend cell lifespan and healthspan” (Vanderbilt University, priority 2016, dated 2023).
# Experiments:
# [1] = test system: VC199 [sir-2.1(ok434)]; assay: Longevity assay, non-functional SIR-2.1 mutant; format: in vivo, C. elegans; settings: 0 μM SA 16 days, p=0.70
# Description: A nematode strain carrying a non-functional SIR-2.1 mutation, VC199 [sir-2.1(ok434)] was treated with the same concentrations of SA as were used in lifespan experiments with WT nematodes. Starting at day 1 of adulthood, SIR-2.1 mutants were grown on SA-coated OP50-seeded NGM plates. SIR-2.1 mutant worms were transferred to freshly made SA-OP50-NGM agar plates every 2 days and survival was assessed using a platinum wire until all worms died; survival was scored as movement upon slight touch with the platinum wire (FIG. 3B). When SA was administered to the VC199 strain, the effect of extending median lifespan that had been observed in the N2 strain was entirely abolished (FIG. 3C; VC199 median lifespan: 16 days, 0 μM SA; 15 days, 50 μM SA; 15 days, 100 μM SA; 15 days, 500 μM SA; p=0.70).
# C. elegans strains were cultured at 20° C. on standard nematode growth media (NGM) agar plates seeded with Escherichia coli strain NA22. The following strains were used in this work: wild-type C. elegans Bristol strain (N2), sir-2.1(ok434) IV, F19F10.5(ok888) V, and daf-16(mu86). Strains were obtained from the Caenorhabditis Genetics Center (University of Minnesota, St. Paul, Minn.). For generating cultures of 15-day-old (Day 15) adult worms, synchronized late-stage L4s/early young adult worms were transferred to peptone enriched 15 cm plates containing UV-irradiated OP50 E. coli and 0.12 mM 5-fluoro-2′-deoxyuridine (FUDR) to inhibit progeny production[88] with or without drug until harvest.
# Nematodes grown on NGM-agar plates containing 0.5% peptone, were harvested, and eggs were isolated by alkaline hypochlorite with 0.5 N NaOH, 1% hypochlorite; 8 min at 23° C. […]
# Survival cultures were grown on 60-mm agar plates; after the late-stage L4/young adult molt, approximately 100 adults were transferred onto SA-OP50-seeded NGM plates. […] Worms were maintained at 20° C. and live worms were counted during transfer to freshly made SA-OP50-NGM agar plates every 2-3 days. Survival was scored as movement upon slight touch with the platinum wire. […]
# [2] = test system: VC199 [sir-2.1(ok434)]; assay: Lipofuscin autofluorescence measurement, VC199; format: in vivo, C. elegans; settings: increasing concentrations of SA, day 15; p=0.50
# Description: As with the N2 strain, the present inventors treated VC199 nematodes with increasing concentrations of SA and assessed the age-dependent accumulation of autofluorescent lipofuscin granules and decrease in pharyngeal pumping rate.
# Synchronized late L4/early young adult worms were plated on FUDR containing SA-OP50-seeded NGM plates and worms were maintained at 20° C. Every fifth day, 10-15 worms were mounted onto 2% agar pads and anesthetized with 3 mM levamisole in DMSO. Images were taken at 250-ms exposure under a DAPI filter using an epifluorescence microscope (Nikon Eclipse 80i) equipped with a Lambda LS Xenon lamp (Sutter Instrument Company) and Nikon Plan Fluor 20× dry and Nikon Plan Apo 60×1.3 oil objectives. The fluorescence was calculated using ImageJ software.
# [3] = test system: VC199 non-functional SIR-2.1 mutants; assay: Real-time RT-PCR of ets-7, VC199; format: in vivo, C. elegans; settings: highest dose of SA, Day 15 VC199; p<0.01
# Text: First, to validate the microarray results, the present inventors performed real-time RT-PCR on four genes, siah-1, sma-4, F13D12.6, and ets-7 (FIG. 6B). […] Messenger RNA levels for siah-1 and sma-4 were decreased by nearly 25%, as well as F13D12.6 and ets-7 were increased by nearly 25% by SA administration (p<0.05). Pathway Analysis using Gene Ontology (GO) with WEB-based Gene SeT Analysis Toolkit (WEBGESTALT <http://bioinfo.vanderbilt.edu/webgestalt/>) highlighted the metabolic process, lipid metabolic process, proteolysis pathways among many others as being altered favorably by the administration of SA (see Supplemental Data). From the array data confirmed by RT-PCR, the present inventors identified the ETS class transcription factor ETS-7 as a protein of interest. ETS factors are known to be involved in regulating lipid metabolism and regulate lifespan in both Drosophila melanogaster and C. elegans. […] In order to test this, the present inventors carried out real-time RT-PCR quantification of ets-7 in non-functional SIR-2.1 mutant nematodes treated with increasing doses of SA (FIG. 6E).
# Total RNA was isolated via the Trizol method, as described previously. […] Quantitative real time PCR (Bio-Rad) was conducted using TaqMan Gene Expression Assay Probes (Life Technologies) for each gene. […]
# [4] = test system: mice; settings: administering SA in mice; cited from earlier work
# [5] = test system: mice; settings: cited from earlier work
# [6] = compared with pyridoxamine (PM); cited from earlier work
smiles,measurement,setting,value
"NCc1ccccc1O [SA, salicylamine]",median lifespan,[1]; 50 μM SA,15 days
same,median lifespan,[1]; 100 μM SA,15 days
same,median lifespan,[1]; 500 μM SA,15 days
same,accumulation of lipofuscin,[2],none of the doses of SA used were able to decrease the accumulation of lipofuscin
same,increase in ets-7 mRNA expression,[3],442%
same,development of angiotensin II-induce hypertension,[4],prevents
same,"tolerability, adverse events","[5]; approximately one year, via drinking water",no evidence of intolerance and no evidence of excess adverse events
same,tumor formation,[5]; long-term SA treatment,No excess tumor formation
same,potency and selectivity for scavenging isoketals,[6],similarly potent and as selective as PM
